Assay results taken from patent US3991210A, “Acetamidine urinary antiseptics” (The Dow Chemical Company, priority 1975, dated 1976).

Legend:
[1] = Toxicity / detrimental pharmacological effects (general statement); type: in vivo, mammals
[2] = Stability in comparison to the hydrochloride salt (general statement); type: physicochemical; details: versus hydrochloride salt
[3] = Acute oral lethality (LD50) in mice; details: mouse, in vivo
Procedure: Separate groups of mice are separately administered an aqueous composition containing 2-(4-bromophenyl)acetamidine hydrochloride. The compound is administered per os at various dosage rates, and the animals are held for 24 hours, after which deaths are recorded, and the LD50 (dosage lethal to 50 percent of the mice) is determined.

[4] = Anorectic effect on repeated oral dosing in rats; type: in vivo; details: 100 mg/kg per day
[5] = system: bacterial microorganisms which may infect the mammalian urinary system; test: Urinary antiseptic activity (general statement); parameters: species or system mammals; details: in vivo
Proteus mirabilis = Proteus mirabilis urinary tract infection in rats, bacterial count per kidney (Example 6); type: in vivo; details: oral; for Mean Bacterial Count (number of organisms per kidney): three doses at 4, 28, 52 hours, 72 hours
Procedure: In a similar operation, a Proteus mirabilis urinary tract infection was established in rats using a similar surgical technique. In separate groups, the test compound 2-(4-bromophenyl)acetamidine p-toluene-sulfonate, or the reference compound nalidixic acid, were administered orally in three doses, 4, 28 and 52 hours after completion of the surgical technique used to establish the infection. Separate groups of rats were left untreated to serve as controls. After 72 hours, the animals were euthanized with carbon dioxide. The left kidney was removed, homogenized in 9 milliliters sterile saline solution, and fivefold dilutions of the resulting brei were made in brain-heart infusion broth. Bacterial counts in the dilutions were determined after 24 hours incubation at 37° C. The oral dose in milligrams per kilogram (mg/kg); millimoles per kilogram (mM); the number of animals in each group, and the base ten logarithm (Log10) of the bacterial count (number of organisms per kidney) are set out below.

Cc1ccc(S(=O)(=O)O)cc1.N=C(N)Cc1ccc(Br)cc1 [2-(4-bromophenyl)acetamidine p-toluene-sulfonate]
toxicity ([1]; in vivo): low toxicity
toxicity characteristics in comparison to the corresponding hydrochloride salt ([1]; versus hydrochloride salt): improved
stability in comparison to the corresponding hydrochloride salt [2]: improved
LD50 at 24 h [3]: 2610 mg/kg
anorectic effect, by the fourth week ([4]; by the fourth week of dosing): decreases and substantially disappears by the fourth week of dosing
anorectic effect, first week ([4]; during the first week): an anorectic effect is observed during the first week
urinary antiseptic activity [5]: high degree of urinary antiseptic activity
Mean Bacterial Count (number of organisms per kidney) (Proteus mirabilis; 12.5 mg/kg): 7.49 Log10
Mean Bacterial Count (number of organisms per kidney) (Proteus mirabilis; 25 mg/kg): 6.01 Log10
Mean Bacterial Count (number of organisms per kidney) (Proteus mirabilis; 50 mg/kg): 4.23 Log10
Mean Bacterial Count (number of organisms per kidney) (Proteus mirabilis; 100 mg/kg): 2.68 Log10
reduction of bacterial counts relative to nalidixic acid, weight basis (Proteus mirabilis; equal dose of nalidixic acid on a weight basis): comparable to an equal dose of nalidixic acid, on a weight basis
effectiveness relative to nalidixic acid, molar basis (Proteus mirabilis; on a molar basis): more effective, on a molar basis, than nalidixic acid
